Data on one molecule can be found in patent US4046904A, “Novel penicillin, and its preparation and use” (Sumitomo Chemical Company, Limited, priority 1975, dated 1977).

Each structure is given as a SMILES string. Like-named read-outs stand apart in the source and are kept apart here.

Usually MIC stands for the least concentration at which growth counts as inhibited.

One assay concerns Staphylococcus aureus. The experiment in a line: Median MIC, clinical isolates, agar-plate dilution (Table 4). Format: cell-based. The method, then:
(§1) Note: Compound (I) and Compound (C) were subjected to the test in the form of the sodium salt. MIC was determined using the agar-plate dilution method.

The next assay has as its system Streptococcus faecalis. The assay is described as above. Format: cell-based. The procedure:
as §1

Assay [1] has as its system Escherichia coli. Description: MIC, nutrient broth dilution (Table 2). Type of assay: cell-based. The procedure: (§2) Note: Compound (I), Compound (A) and Compound (B) were subjected to the test in the form of the sodium salt. For each test, eight male ICR-SLC strain mice were used at each dose level. MIC was determined by the nutrient broth dilution method. In determination of PD50, subcutaneous treatment was carried out twice, i.e. 1 and 4 hours after infection.
In general terms: Broth dilution looks for growth in wells or tubes with falling amounts of substance.

Assay [2] has as its system Pseudomonas aeruginosa. The experiment in a line: MIC, nutrient broth dilution (Table 2). Type of assay: cell-based. The method, then:
as §2

The test system of assay [3] is Klebsiella pneumoniae. Description: MIC, nutrient broth dilution (Table 2). Format: cell-based. The procedure: as §2
The test system of assay [4] is Escherichia coli. The experiment in a line: Intraperitoneal infection in mice, median protective dose (Table 2). Type of assay: in vivo. The note with it: sc, subcutaneous, 1 and 4 hours after infection, sodium salt, read-out: PD50. The method, then: as §2
The subject of assay [5] is Pseudomonas aeruginosa. Described as above. Format: in vivo. As to conditions: subcutaneous; for ED50: sc, 1 and 4 hours after infection, sodium salt, read-out: PD50. The procedure:
as §2

Assay [6] relates to Klebsiella pneumoniae. The assay is described as above. As to conditions: subcutaneous; for ED50: sc, 1 and 4 hours after infection, sodium salt, read-out: PD50. Type of assay: in vivo. The method, then:
as §2

Regarding `CC1(C)S[C@@H]2[C@H](NC(=O)[C@H](NC(=O)c3ccnnc3O)c3ccc(O)cc3)C(=O)N2[C@H]1C(=O)O` [Compound (I), 6-[D-2-(3-hydroxypyridazine-4-carbonamido)-2-(p-hydroxyphenyl)acetamido]penicillanic acid], the MIC50 with Staphylococcus aureus (37 strains, agar-plate dilution, sodium salt, read-out: Median minimum inhibitory concentration) is 15 µg/mL; in the assay with Streptococcus faecalis (Enterococcus faecalis, 23 strains, agar-plate dilution, sodium salt, read-out: Median minimum inhibitory concentration), 2 µg/mL. The “antibacterial activity relative to Compound (C)” value in the assay with Staphylococcus aureus (clinical isolates) and in the assay with Streptococcus faecalis (clinical isolates) was “superior” throughout. Moreover, the MIC in the assay with Escherichia coli [1] (Escherichia coli strain NIHJ, sodium salt) is 6.25 µg/mL; with Escherichia coli [1] (Escherichia coli strain No. 37, sodium salt), 12.5 µg/mL; with Pseudomonas aeruginosa [2] (Pseudomonas aeruginosa strain NC-5, sodium salt), 12.5 µg/mL; in the assay on Pseudomonas aeruginosa [2] (Pseudomonas aeruginosa strain T, sodium salt) it was 25 µg/mL; with Klebsiella pneumoniae [3] (Klebsiella pneumoniae strain No. 1, sodium salt), 6.25 µg/mL; in the assay on Klebsiella pneumoniae [3] (Klebsiella pneumoniae strain No. 6, sodium salt), 25 µg/mL. In addition, the MIC with Klebsiella pneumoniae [3] (Klebsiella pneumoniae strain No. 20, sodium salt) was found to be 12.5 µg/mL. Further, the ED50 with Escherichia coli [4] (E. coli strain NIHJ, male ICR-SLC mice) stood at 3.2 mg/kg; in the assay on Escherichia coli [4] (E. coli strain No. 37, male ICR-SLC mice), 31 mg/kg; in the assay with Pseudomonas aeruginosa [5] (P. aeruginosa strain NC-5, male ICR-SLC mice), 22 mg/kg; in the assay on Pseudomonas aeruginosa [5] (P. aeruginosa strain T, male ICR-SLC mice), 35 mg/kg; in the assay with Klebsiella pneumoniae [6] (K. pneumoniae strain No. 1, male ICR-SLC mice), 25 mg/kg; in the assay on Klebsiella pneumoniae [6] (K. pneumoniae strain No. 6, male ICR-SLC mice) it was 36 mg/kg. For the same molecule, the ED50 in the assay on Klebsiella pneumoniae [6] (K. pneumoniae strain No. 20, male ICR-SLC mice) is 31 mg/kg. The “PD50 relative to Compound (A) and Compound (B)” value in the assay on Pseudomonas aeruginosa [5] (mice) and with Klebsiella pneumoniae [6] (mice) was “markedly superior” each time.
